Laboratory results as given in patent EP0158545A1, “[Alpha-(alkylaminomethyl)-benzylthio]-acetic-acid derivatives, process for their preparation and their therapeutic use” (priority 1984, dated 1985).

Tests used:
souris mâle [1] = conditions: mouse, in vivo, ip
Protocol: (§1) On a résumé ci-après les résultats des essais neuropsychopharmacologiques qui ont été entrepris avec les produits préférés selon l'invention, le CRL 41 190 (Ex 1) et le CRL 41 214 (Ex 3). Dans ce résumé, les deux produits à tester mis en solution dans de l'eau distillée ont été administrés, sauf indiction contraire, par voie intrapéritonéale sous un volume de 20 ml/kg chez la souris mâle et sous un volume de 5 ml/kg chez le rat mâle. […]
La DL-0 (dose maximale non mortelle) du CRL 41 190 est supérieure à 128 mg/kg par voie I.P. chez la souris mâle, et la DL-30 est de l'ordre de 256 mg/kg.
Par voie I.P. chez la souris mâle, la DL-0 est supérieure à 256 mg/kg.

souris [2] = experiment: Global behaviour and reactivities, mouse; type: in vivo; conditions: I.P.
Protocol: as §1
(§2) Des lots de trois animaux sont observés avant puis 0,25 h, 0,5, h, 1 h, 2 h, 3 h et 24 h après administration de CRL 41 190.

rat [3] = experiment: Global behaviour and reactivities, rat; type: in vivo; conditions: I.P.
Protocol: as §1, §2

souris [4] = experiment: Interaction with apomorphine, mouse; type: in vivo; conditions: product I.P. 0,50 h before s.c. apomorphine
Protocol: • 1°) chez la souris • Des lots de 6 souris reçoivent le produit à étudier 0,50 h avant une injection sous-cutanée de 1 mg/kg ou 16 mg/kg d'apomorphine.

rat [5] = experiment: Interaction with apomorphine, rat; type: in vivo; conditions: product I.P. 0,50 h before s.c. 0,5 mg/kg apomorphine
rats = experiment: Interaction with amphetamine (stereotypies), rat; type: in vivo; conditions: amphétamine 2 mg/kg I.P. half an hour after product, doses de 8 et 32 mg/kg
Protocol: L'amphétamine (2 mg/kg) est injectée par voie intrapéritonéale à des lots de 6 rats, une demi -heure après l'administration de CRL 41 190.

souris [6] = experiment: Interaction with reserpine (hypothermia, ptosis), mouse; type: in vivo
Protocol: Quatre heures après l'injection intrapéritonéale de 2,5 mg/kg de réserpine, des lots de 12 souris reçoivent le CRL 41 190. On étudie l'influence du produit à tester sur l'hypothermie et le ptôsis réserpiniques.

souris [7] = experiment: Interaction with oxotremorine, mouse; type: in vivo
souris [8] = experiment: Four-plate test, traction and electroshock, mouse; type: in vivo
Protocol: Le test est pratiqué sur des lots de 10 souris 0,50 h après l'administration du produit à étudier.

souris [9] = experiment: Spontaneous motility (actimeter), mouse; type: in vivo; conditions: souris, 0,5 h after I.P., recorded 30 minutes; plus forte dose utilisée (64 mg/kg)
souris [10] = experiment: Intergroup aggressiveness, mouse; type: in vivo; conditions: half an hour after I.P., 10 minutes, plus forte dose utilisée (64 mg/kg)
Protocol: Après avoir séjourné pendant 3 semaines dans chacune des moitiés d'une cage séparées par une cloison opaque, des groupes de 3 souris reçoivent le CRL 41 190. Une demi-heure plus tard, les deux groupes d'une même cage sont réunis par retrait de la cloison et on note le nombre de combats qui surviennent en 10 minutes.

souris [11] = experiment: Motility reduced by habituation to the enclosure, mouse; type: in vivo; conditions: I.P., after 18 heures in actimeter
souris [12] = experiment: Asphyxic anoxia (gallamine triethiodide), mouse; type: in vivo; conditions: product I.P. half an hour before triiodoéthylate de gallamine 32 mg/kg I.P.
souris [13] = experiment: Interaction with barbital (sleep duration), mouse; type: in vivo; conditions: barbital 220 mg/kg I.P. half an hour after product, plus forte dose utilisée (64 mg/kg)
souris [14] = experiment: Behavioural despair (forced immersion), mouse; type: in vivo; conditions: half an hour after I.P., plus forte dose utilisée (64 mg/kg)
Text: On note la durée totale d'immobilité entre la 2ème et la 6ème minutes suivant l'immersion.

souris mâle [15] = experiment: Complementary neuropsychopharmacological tests by gastric route, mouse; type: in vivo; conditions: voie gastrique, 20 ml/kg in distilled water
Protocol: Des essais complémentaires ont été entrepris, le CRL 41 190 en solution dans de l'eau distillée étant administré par voie gastrique sous un volume de 20 ml/kg chez la souris mâle.

l'homme = experiment: Clinical treatment of depression, oral administration; type: in vivo
souris [16] = conditions: half an hour after I.P., dépression de 600 mmHg
[17] = oxotrémorine 0,5 mg/kg I.P., dose de 64 mg/kg
[18] = souris, 0,50 h after I.P. administration

Compound: CC(C)(C)NCC(SCC(N)=O)c1ccccc1 (racemic) [CRL 41 190, chlorhydratede [α-(tertiobutylamino-méthyl)-benzyl]-thioacétamide]
- DL-0 (dose maximale non mortelle) (souris mâle [1]): > 128 mg/kg
- DL-30 (souris mâle [1]): ~256 mg/kg
- comportement global et réactivités (souris [2]; dose de 1 mg/kg, observed 0,25 h to 24 h): aùcune modification nette du comportement et et des réactivités
- comportement global et réactivités (souris [2]; dose de 64 mg/kg): une augmentation de la réaction de peur pendant 1 h et de la réactivité au toucher de 0,5 h à 1 h, une sédation, et, une mydriase faible pendant 1 h
- comportement global et réactivités (souris [2]; doses de 4 et 16 mg/kg): une augmentation de la réaction de peur, d'υne part, et une augmentation de la réactivité au toucher pendant 0,5 h
- comportement global et réactivités (rat [3]; dose de 32 mg/kg): une mydriase pendant 1 h
- comportement global et réactivités (rat [3]; doses de 0,5 mg/kg à 8 mg/kg): un comportement, des réactivités, une variation de la température rectale, et une variation du diamètre pupillaire sensiblement comparables à ceux du lot témoin
- comportements de verticalisation et stéréotypies (apomorphine) (souris [4]): ne sont pratiquement pas modifiés
- hypothermie induite par 16 mg/kg d'apomorphine (souris [4]; dès la dose de 1 mg/kg): antagonise dès la dose de 1 mg/kg l'hypothermie induite par 16 mg/kg d'apomorphine
- hypothermie induite par 1 mg/kg d'apomorphine (souris [4]; plus forte dose utilisée (64 mg/k)): s'oppose à l'hypothermie induite par 1 mg/kg d'apomorphine
- stéréotypies induites par l'apomorphine (rat [5]): laisse inchangées les stéréotypies induites par l'apomorphine
- durée des stéréotypies amphétaminiques (rats): augmente nettement la durée des stéréotypies amphétaminiques
- hypothermie réserpinique (souris [6]; product 4 h after réserpine 2,5 mg/kg I.P., dès la dose de 4 mg/kg): antagonise l'hypothermie réserpinique
- ptôsis réserpinique (souris [6]; réserpine 2,5 mg/kg I.P., 16 mg/kg et 64 mg/kg, from half an hour after administration): antagonise faiblement le ptôsis réserpinique
- hypothermie réserpinique (souris [6]; réserpine 2,5 mg/kg I.P., deux plus fortes doses (16 mg/kg et 64 mg/kg)): Cet antagonisme est très net
- signes de stimulation cholinergique périphérique dûs à l'oxotrémorine (souris [7]; oxotrémorine 0,5 mg/kg I.P., aux autres doses (below 64 mg/kg)): ne modifie pratiquement pas les signes de stimulation cholinergique péripherique dûs à l'oxotrémorine
- intensité des tremblements dûs à l'oxotrémorine (souris [7]; [17]): diminue faiblement l'intensité des tremlblements dûs à l'oxotrémorine
- salivation (symptômes cholinergiques périphériques) (souris [7]; [17]): diminue faiblement la salivation entre les 1,5 h et 2 h qui suivent son administration
- hypothermie induite par l'oxotrémorine (souris [7]; oxotrémorine 0,5 mg/kg I.P., doses de 4 mg/kg, 16 mg/kg et surtout 64 mg/kg): Cet antagonisme est net
- hypothermie induite par l'oxotrémorine (souris [7]; product half an hour before oxotrémorine 0,5 mg/kg I.P., dès la dose de 1 mg/kg): s'oppose à l'hypothermie induite par l'oxotrémorine
- effets convulsivants de l'électrochoc (souris [8]; [18]): ne modifie pas les effets convulsivants
- incapacité motrice (traction) (souris [8]; [18]): ne provoque pas d'incapacité motrice majeure
- nombre de passages punis (test des quatre plaques) (souris [8]; [18]): n'entraîne pas d'augmentation du nombre de passages punis
- effets létaux de l'électrochoc (souris [8]; souris, I.P., dose de 64 mg/kg): aggrave, à la dose de 64 mg/kg, les effets létaux de l'électrochoc
- activité motrice spontanée (souris [9]): ne modifie pratiquement pas l'activité motrice spontanée de la souris
- nombre de combats (souris [10]): augmente modérément le nombre de combats
- reprise d'activité motrice chez la souris habituée à son enceinte (souris [11]): n'entraîne pas de reprise d'activité motrice chez la souris habituée à son enceinte
- délai d'apparition des convulsions et de la mort consécutives à une anoxie asphyxique (souris [12]): ne modifie pas le délai d'apparition des convulsions et de la mort
- durée du sommeil barbiturique (souris [13]): diminue la durée du sommeil barbiturique
- durée de l'immobilité de la souris placée en immersion forcée (souris [14]): diminue nettement la durée de l'immobilité de la souris placée en immersion forcée
- overall CNS profile by gastric route (souris mâle [15]): agit essentiellement en tant qu'antidépresseur avec, à fortes doses, une composante éveillante et stimulante très modérée
- traitement des dépressions chez l'homme (l'homme; administration orale, gélules ou comprimés 25 mg ou 50 mg, 1 à 2 prises par jour, deux à trois semaines): bons résultats
- propriétés antidépressives chez les personnes agées (l'homme; clinical, oral): se manifestaient de façon très bénéfique chez les personnes agées
- récupération motrice après anoxie hypobare aigue (souris [16]): n'entraîne pas d'amélioration de la récupération motrice
